Assay results from ChEMBL document CHEMBL5528047, “A Potent SOS1 PROTAC Degrader with Synergistic Efficacy in Combination with KRASG12C Inhibitor” (J Med Chem, 2024).
Calls of active or inactive are those of the source. The rule behind the calls is not given here.

How the values were obtained:
[1] = Toxicity in BALB/c mouse xenografted with human NCI-H358 cells assessed as body weight loss at 30 mg/kg, ip administered once daily for 28 days in presence of 10 mg/kg 4-((S)-4-acryloyl-2-methylpiperazin-1-yl)-6-fluoro-7-(2-fluoro-6-hydroxyphenyl)-1-(2-isopropyl-4-methylpyridin-3-yl)pyrido[2,3-d]pyrimidin-2(1H)-one; assay type: organism-based; conditions: in vivo, 672 h, time 28 day
[2] = molecular target: T1, von Hippel-Lindau disease tumor suppressor/Son of sevenless homolog 1 (Homo sapiens, UniProt Q07889+P40337); assay: Protac activity at VHL/SOS1 in human MIA PaCa-2 cells assessed as SOS1 degradation at 1 uM preincubated with VHL ligand V1 for 2 hrs followed by compound addition and measured after 3 hrs by Western blotting analysis; assay type: cell-based
Target sequence in this assay (P40337 whole entry, looked up, one chain of several): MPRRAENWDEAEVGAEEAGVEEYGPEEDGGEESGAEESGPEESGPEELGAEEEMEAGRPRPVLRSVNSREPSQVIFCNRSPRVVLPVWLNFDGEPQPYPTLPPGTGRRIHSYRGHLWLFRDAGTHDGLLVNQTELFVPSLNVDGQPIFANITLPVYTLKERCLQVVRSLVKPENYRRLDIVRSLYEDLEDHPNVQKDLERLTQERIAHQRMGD

NCI-H358 [3] = assay: Antitumor activity against human NCI-H358 cells xenografted in BALB/c mouse assessed as tumor growth inhibition at 30 mg/kg, ip administered once daily for 28 days; assay type: functional; conditions: NCI-H358, 672 h, time 28 day, read-out: TGI
K562 [4] = assay: Antiproliferative activity against human K562 cells incubated for 72 hrs by CCK8 assay; assay type: functional, cell-based; conditions: K562, 72 h
[5] = molecular target: T1, von Hippel-Lindau disease tumor suppressor/Son of sevenless homolog 1; assay: Protac activity at VHL/SOS1 in human PANC-1 cells assessed as SOS1 degradation incubated for 24 hrs by Western blotting analysis; assay type: cell-based
[6] = molecular target: T1, von Hippel-Lindau disease tumor suppressor/Son of sevenless homolog 1; assay: Protac activity at VHL/SOS1 in human K562 cells assessed as SOS1 degradation at 1 uM by Western blotting analysis relative to control; assay type: cell-based
Target sequence in this assay (P40337 whole entry, looked up, one chain of several): as above

K562 [7] = assay: Potency index, ratio of BI3406 IC50 to test compound IC50 for antiproliferative activity against human K562 cells incubated for 72 hrs by CCK8 assay; assay type: functional
[8] = AUC(0 to t) in ICR mouse at 10 mg/kg, po measured upto 24 hrs by LC-MS/MS analysis; assay type: ADME, organism-based; conditions: in vivo
[9] = molecular target: T1, von Hippel-Lindau disease tumor suppressor/Son of sevenless homolog 1; assay: Protac activity at VHL/SOS1 in human PANC-1 cells assessed as maximum SOS1 degradation at 0.003 to 10 uM incubated for 24 hrs by Western blotting analysis; assay type: cell-based; conditions: dose 0.003-10 µM
Target sequence in this assay (P40337 whole entry, looked up, one chain of several): as above

[10] = molecular target: T1, von Hippel-Lindau disease tumor suppressor/Son of sevenless homolog 1; assay: Protac activity at VHL/SOS1 in human K562 cells assessed as SOS1 degradation at 1 uM preincubated with BI3406 for 2 hrs followed by compound addition and measured after 2 hrs by Western blotting analysis; assay type: cell-based
Target sequence in this assay (P40337 whole entry, looked up, one chain of several): as above

[11] = molecular target: T1, von Hippel-Lindau disease tumor suppressor/Son of sevenless homolog 1; assay: Protac activity at VHL/SOS1 in human MIA PaCa-2 cells assessed as SOS1 degradation incubated for 24 hrs by Western blotting analysis; assay type: cell-based
[12] = Toxicity in NOD-SCID mouse assessed as body weight loss at 5 to 25 mg/kg, ip administered as 5 days on and 2 days off schedule for 21 days; assay type: organism-based; conditions: in vivo, 120 h, dose 5-25 mg/kg, time 5 day
SW837 = assay: Inhibition of ERK phosphorylation in human SW837 cells at 1 uM measured after 24 to 72 hrs in presence of AMG510 by Western blotting analysis; assay type: cell-based; conditions: time 24-72 hrs
NCI-H358 [13] = assay: Antiproliferative activity against human NCI-H358 cells incubated for 6 days by CCK8 assay; assay type: functional, cell-based; conditions: NCI-H358, 144 h
[14] = molecular target: T1, von Hippel-Lindau disease tumor suppressor/Son of sevenless homolog 1; assay: Protac activity at VHL/SOS1 in human NCI-H358 cells assessed as maximum SOS1 degradation at 0.003 to 10 uM incubated for 24 hrs by Western blotting analysis; assay type: cell-based; conditions: dose 0.003-10 µM
Target sequence in this assay (P40337 whole entry, looked up, one chain of several): as above

MIA PaCa-2 [15] = assay: Induction of apoptosis in human MIA PaCa-2 cells assessed as increase in cleaved caspase-3 level incubated for 24 hrs in presence of 4-((S)-4-acryloyl-2-methylpiperazin-1-yl)-6-fluoro-7-(2-fluoro-6-hydroxyphenyl)-1-(2-isopropyl-4-methylpyridin-3-yl)pyrido[2,3-d]pyrimidin-2(1H)-one by Western blotting assay; assay type: functional, cell-based
[16] = molecular target: T2, Son of sevenless homolog 1 (Homo sapiens) (UniProt Q07889); assay: Induction of SOS1 degradation in human MIA PaCa-2 cells at 1 uM after 24 hrs by MS analysis; assay type: cell-based
T2 sequence (whole entry): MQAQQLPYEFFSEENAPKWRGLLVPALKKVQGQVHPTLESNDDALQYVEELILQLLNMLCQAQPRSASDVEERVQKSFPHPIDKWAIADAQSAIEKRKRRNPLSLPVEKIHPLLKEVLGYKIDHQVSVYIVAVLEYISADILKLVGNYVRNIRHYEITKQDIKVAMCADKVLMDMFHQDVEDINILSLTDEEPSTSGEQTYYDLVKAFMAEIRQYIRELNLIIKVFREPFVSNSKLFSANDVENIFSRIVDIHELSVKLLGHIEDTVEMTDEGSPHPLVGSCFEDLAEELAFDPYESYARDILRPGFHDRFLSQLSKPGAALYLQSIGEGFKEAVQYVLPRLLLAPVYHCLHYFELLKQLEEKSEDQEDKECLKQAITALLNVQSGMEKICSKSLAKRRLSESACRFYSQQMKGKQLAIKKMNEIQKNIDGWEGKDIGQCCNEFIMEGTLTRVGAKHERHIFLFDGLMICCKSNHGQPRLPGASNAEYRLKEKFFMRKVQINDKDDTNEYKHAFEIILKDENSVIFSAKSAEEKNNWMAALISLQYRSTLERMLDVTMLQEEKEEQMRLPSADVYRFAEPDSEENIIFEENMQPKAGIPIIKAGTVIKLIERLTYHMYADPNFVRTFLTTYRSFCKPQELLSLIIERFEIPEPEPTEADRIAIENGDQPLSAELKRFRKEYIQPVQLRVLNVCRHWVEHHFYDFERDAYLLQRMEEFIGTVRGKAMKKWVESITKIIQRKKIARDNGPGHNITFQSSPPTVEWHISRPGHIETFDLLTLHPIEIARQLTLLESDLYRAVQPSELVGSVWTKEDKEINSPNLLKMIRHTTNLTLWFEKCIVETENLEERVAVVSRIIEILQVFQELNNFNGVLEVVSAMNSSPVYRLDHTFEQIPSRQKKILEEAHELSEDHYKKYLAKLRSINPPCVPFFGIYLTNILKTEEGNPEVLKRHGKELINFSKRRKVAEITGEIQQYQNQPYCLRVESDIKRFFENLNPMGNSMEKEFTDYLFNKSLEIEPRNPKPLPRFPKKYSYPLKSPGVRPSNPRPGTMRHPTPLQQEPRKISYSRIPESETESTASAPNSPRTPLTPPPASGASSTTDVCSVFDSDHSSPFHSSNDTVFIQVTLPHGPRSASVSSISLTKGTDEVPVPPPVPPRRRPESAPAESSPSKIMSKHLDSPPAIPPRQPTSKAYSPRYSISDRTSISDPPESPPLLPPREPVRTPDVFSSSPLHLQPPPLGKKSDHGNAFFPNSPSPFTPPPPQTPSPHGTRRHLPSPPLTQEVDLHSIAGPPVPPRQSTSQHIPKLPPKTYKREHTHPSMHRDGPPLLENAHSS

NCI-H358 [17] = assay: Synergistic antiproliferative activity against human NCI-H358 cells assessed as combination index incubated for 5 days in presence of 4-((S)-4-acryloyl-2-methylpiperazin-1-yl)-6-fluoro-7-(2-fluoro-6-hydroxyphenyl)-1-(2-isopropyl-4-methylpyridin-3-yl)pyrido[2,3-d]pyrimidin-2(1H)-one; assay type: functional; conditions: time 5 day
[18] = Half life in ICR mouse at 10 mg/kg, po measured upto 24 hrs by LC-MS/MS analysis; assay type: ADME, organism-based; conditions: in vivo
MIA PaCa-2 [19] = assay: Antiproliferative activity against human MIA PaCa-2 cells incubated for 72 hrs by CCK8 assay; assay type: functional, cell-based; conditions: MIA PaCa-2, 72 h

COc1cc2nc(C)nc(N[C@H](C)c3cc(N)cc(C(F)(F)F)c3)c2cc1OCCCCC(=O)N[C@H](C(=O)N1C[C@H](O)C[C@H]1C(=O)NCc1ccc(-c2scnc2C)cc1)C(C)(C)C
Activity [1]: Non-Toxic | Activity [2]: inactive | inhibition in vivo at 30 mg/kg (NCI-H358 [3]): 11.4% | IC50 (K562 [4]): 535 nM | Activity [5]: Dose-Dependent Effect | DC50 [5]: 43 nM | Activity [6]: 89.8% | Ratio IC50 (K562 [7]): 3 | AUC(0-t) at 24 h [8]: 4260 ng·h/mL | Emax [9]: > 90% | Activity [10]: inactive | Activity [11]: Dose-Dependent Effect | DC50 [11]: 61 nM | Activity [12]: Non-Toxic | inhibition (SW837): Active | IC50 (NCI-H358 [13]): 2450 nM | Emax [14]: > 90% | Activity (MIA PaCa-2 [15]): Active | Activity [16]: Active | CI (NCI-H358 [17]): <1 | half-life [18]: 4.19 h | IC50 (MIA PaCa-2 [19]): 98 nM
